Source: US20060069149A1, “Thiadibenzoazulene derivatives for the treatment of inflammatory diseases” (Pliva-Istrazivacki Institut d.o.o., priority 2003, published 2006)

Tested on: TNF-α and IL-1 secretion
Experiment: investigated assays, not said which: TNF-α and IL-1 secretion in human PBMC, in mouse peritoneal macrophages, LPS-induced secretion in mice, writhing assay, LPS-induced shock in mice
Conditions: active means: PBMC IC50 20 μM or lower; mouse macrophages IC50 10 μM or lower; 30% or more TNF-α inhibition at 10 mg/kg; analgetic activity as acetylsalicylic acid or better; survival 40% or more at 30 mg/kg
Method: The inhibitory action of the present compounds upon TNF-α and IL-1 secretion was determined by the following in vitro and in vivo experiments:
Determination of TNF-α and IL-1 Secretion in Human Peripheral Blood Mononuclear Cells in vitro
Human peripheral blood mononuclear cells (PBMC) were prepared from heparinized whole blood after separating PBMC on Ficoll-Paque™Plus (Amersham-Pharmacia). […] The IL-1 level was determined in an assay under the same conditions and with the same number of cells and the same concentration of the stimulus by ELISA procedure (R&D Systems). The percentage of inhibition of TNF-α or IL-1 production was calculated by the equation: % inhibition=[1−(TS−NC)/(PC−NC)]*100. […]
In order to obtain peritoneal macrophages, Balb/C mouse strain males, age 8 to 12 weeks, were injected i.p. with 300 μg of zymosan (SIGMA) dissolved in a phosphate buffer (PBS) in a total volume of 0.1 ml/mouse. […] The TNF-α level in the cell supernatant was determined by ELISA procedure (R&D Systems, Biosource). IL-1 level was determined in an assay, identical to an assay for TNF-a by ELISA procedure (R&D Systems). The percentage of inhibition of TNF-α or IL-1 production was calculated by the equation: % inhibition=[1−(TS−NC)/(PC−NC)]*100. […]

Row | SMILES | activity in the investigated assays
1 | CN(C)CCCOCc1cc2c(s1)-c1ccc(OCCCN(C)C)cc1Oc1ccccc1-2 [Example 14, {3-[2-(3-Dimethylamino-propoxymethyl)-8-oxa-1-thia-dibenzo[e,h]azulene-10-yloxy]-propyl}-dimethyl-amine] | activity in at least two investigated assays
2 | CCOC(=O)c1cc2c(s1)-c1ccc(OCCN3CCCC3)cc1Oc1ccccc1-2 [Example 4, 10-(2-Pyrrolidin-1-yl-ethoxy)-8-oxa-1-thia-dibenzo[e,h]azulene-2-carboxylic acid ethyl ester] | activity in at least two investigated assays
